The text below walks through data of PMC12494543, “Identification of ALKBH6 as a nucleotide demethylase with a distinct substrate preference” (The Journal of Biological Chemistry, 2025).

For experiment [1], the target named is T1, ALKBH6 (Homo sapiens, UniProt Q3KRA9).
T1 construct: His-tag; made in house
The experiment can be described thus: Uncoupled succinate production (SucCD colorimetric assay). Type of experiment: biochemical. To be noted: CoCl2 20 μM, no substrate. The procedure: The uncoupled succinate production reaction was set up in two steps as described before ([54]). In the initial step, WT ALKBH6 (5–20 μM) was incubated in dioxygenase reaction buffer (20 mM Hepes, pH 8.0, 0.2 mM 2OG, 2 mM ascorbate, 5 μM Fe(NH4)2(SO4)2) for 1 h at 37 °C to form succinate. Then the reaction mixture (50 μl) was mixed with recombinant sucCD (1 μM) in SucCD reaction buffer (2 mM MES, pH 6.5, 5 mM ATP 3.258 mM CoA, 50 mM MgCl2) and further incubated for 30 min at 37 °C. Finally, molybdate solution was added for colorimetric detection and the succinate concentration was detected from the standard curve. For inhibition, CoCl2 (20 μM) was used. The results were plotted and analyzed using GraphPad Prism (www.graphpad.com).

In experiment [2] the target is T1, ALKBH6. Nature of the experiment: FDH-coupled formaldehyde release demethylation assay. Type of experiment: biochemical. The note with it: me-dNMPs as substrate. The method, then:
NMPs including 1meAMP (Jena Bioscience, NU-1029-1,) 7meGMP (Jena Bioscience, NU-1135S), 6me-AMP (Sigma, M2780) were purchased. N-methylated deoxy-NMPs were prepared by methylating chemically synthesized 30-mer oligonucleotide containing either dA, dG, dC, or dT by MMS (5%, v/v) (0.59 M) MMS (Sigma, 129925) and purified as described before ([17]). The oligonucleotides were digested with nuclease P1 (NEB) at 37 °C for 4 h to produce deoxy-NMPs. After heat inactivating the nuclease, dNMPs were purified by HPLC and used for the demethylation reaction. N-methylated NMPs were purified similarly, using RNA as the starting material. For the demethylation reaction, ALKBH6 (1 μM) and me-dNMPs (1 mM) were mixed in the dioxygenase reaction buffer and incubated at 37 °C for 30 min. Formaldehyde release was detected by FDH-coupled DNA repair assay as described before ([32], [33]). Briefly, 1 mM NAD+ and 0.01 U FDH were added to the dioxygenase reaction buffer containing methylated nucleotide and ALKBH6. NADH generated was detected by the characteristic absorption peak (340 nm) using a 96-well multimode reader (Synergy, Biotek Instrument). Formaldehyde production was quantified from the standard curve and the initial velocities were determined using various substrate concentrations. The results were plotted and analyzed using GraphPad Prism.

T1 sequence (Q3KRA9 whole entry): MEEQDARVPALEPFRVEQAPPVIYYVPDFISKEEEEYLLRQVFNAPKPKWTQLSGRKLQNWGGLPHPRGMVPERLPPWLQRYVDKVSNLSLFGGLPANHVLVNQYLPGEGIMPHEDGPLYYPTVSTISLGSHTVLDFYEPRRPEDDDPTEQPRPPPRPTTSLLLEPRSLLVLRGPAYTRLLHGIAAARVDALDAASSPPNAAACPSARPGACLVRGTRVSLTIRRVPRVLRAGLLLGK

On to `[Cl][Co][Cl]` [Co(II), cobalt chloride, reference compound], for which the “inhibition of uncoupled succinate production” value in experiment [1] is listed as “inhibited”. Further, the “inhibition of ALKBH6-mediated demethylation” value in experiment [2] is reported as “completely inhibited”.
